ChEMBL document CHEMBL1149210, “A novel series of potent and selective small molecule inhibitors of the complement component C1s” (Bioorg Med Chem Lett, 2004)

biological target: Prothrombin (Homo sapiens, UniProt P00734); experiment: In vitro binding affinity towards thrombin was determined

Row | Ki [nM] | Compound
1 | > 50000 | CCCc1c(-c2csc(-c3cc(C(=N)N)sc3SC)n2)cnn1-c1ccccn1

biological target: T1, Complement C1s subcomponent (Homo sapiens, UniProt P09871); experiment: In vitro binding affinity towards human Complement C1s subcomponent
T1 sequence (P09871 whole entry): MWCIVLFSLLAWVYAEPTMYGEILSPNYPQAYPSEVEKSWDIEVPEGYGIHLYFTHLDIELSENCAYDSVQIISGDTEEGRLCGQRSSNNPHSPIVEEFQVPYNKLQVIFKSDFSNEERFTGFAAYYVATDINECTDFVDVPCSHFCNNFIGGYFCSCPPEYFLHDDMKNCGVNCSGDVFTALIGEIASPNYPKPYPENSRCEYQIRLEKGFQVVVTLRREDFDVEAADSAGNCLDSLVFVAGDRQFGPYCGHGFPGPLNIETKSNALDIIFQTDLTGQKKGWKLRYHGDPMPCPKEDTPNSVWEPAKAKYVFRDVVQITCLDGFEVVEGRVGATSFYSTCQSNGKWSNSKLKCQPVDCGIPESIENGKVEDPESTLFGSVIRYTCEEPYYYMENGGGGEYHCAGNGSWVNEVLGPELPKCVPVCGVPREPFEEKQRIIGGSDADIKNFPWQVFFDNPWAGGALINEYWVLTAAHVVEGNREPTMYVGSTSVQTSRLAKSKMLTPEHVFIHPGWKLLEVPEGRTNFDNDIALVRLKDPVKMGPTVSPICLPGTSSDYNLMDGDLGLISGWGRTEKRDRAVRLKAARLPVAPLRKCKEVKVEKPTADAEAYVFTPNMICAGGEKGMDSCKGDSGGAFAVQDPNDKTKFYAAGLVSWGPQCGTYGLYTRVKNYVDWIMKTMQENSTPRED

Row | Compound | Ki [nM]
2 | CSc1sc(C(=N)N)cc1-c1nc(C2CCCCC2)cs1 | 4700
3 | CCCc1c(-c2csc(-c3cc(C(=N)N)sc3SC)n2)cnn1-c1ccccc1 | 60
4 | CSc1sc(C(=N)N)cc1-c1nc(-c2cnn(-c3ccccc3)c2OCCC(C)C)cs1 | 1500
5 | CCc1sc(C(=N)N)cc1-c1nc(-c2ccccc2)cs1 | 3000
6 | CSc1sc(C(=N)N)cc1-c1ncc(-c2ccccc2)s1 | 3250
7 | CSc1sc(C(=N)N)cc1-c1nc(-c2cnn(-c3ccccc3)c2OCC2CCC2)cs1 | 530
8 | Cc1sc(C(=N)N)cc1-c1nc(-c2ccccc2)cs1 | 6000
9 | CS(=O)(=O)c1sc(C(=N)N)cc1-c1nc(-c2ccccc2)cs1 | > 28000
10 | N=C(N)c1cc(-c2nc(-c3ccccc3)cs2)c(C(F)(F)F)s1 | 12500
11 | CCCc1nn(C)cc1-c1csc(-c2cc(C(=N)N)sc2SC)n1 | 190
12 | CCCc1c(-c2csc(-c3cc(C(=N)N)sc3SC)n2)cnn1C | 330
13 | CCOc1c(-c2csc(-c3cc(C(=N)N)sc3SC)n2)cnn1-c1ccccc1 | 90
14 | N=C(N)c1cc(-c2nc(-c3ccccc3)cs2)c(SCc2ccccc2)s1 | > 20000
15 | CCCc1c(-c2csc(-c3cc(C(=N)N)sc3SC)n2)cnn1-c1ccccn1 | 70
16 | CSc1sc(C(=N)N)cc1-c1nc(Cc2ccccc2)cs1 | 1060
17 | N=C(N)c1cc(-c2nc(-c3ccccc3)cs2)cs1 | > 20000

Results, then the compound that gave them:

Row | Ki [nM] | Compound
18 | 860 | CSc1sc(C(=N)N)cc1-c1nc(-c2ccc(Cl)c([N+](=O)[O-])c2)cs1
19 | 490 | CSc1sc(C(=N)N)cc1-c1nc(-c2ccc3ccccc3c2)cs1
20 | 436 | CSc1sc(C(=N)N)cc1-c1nc(-c2ccc(Cl)cc2)cs1
21 | 870 | CSc1sc(C(=N)N)cc1-c1nc(-c2cnccc2Cl)cs1
22 | 850 | COc1ccccc1-c1csc(-c2cc(C(=N)N)sc2SC)n1
23 | 640 | COc1ccc(-c2csc(-c3cc(C(=N)N)sc3SC)n2)c(OC)c1
24 | 470 | COc1cccc(-c2csc(-c3cc(C(=N)N)sc3SC)n2)c1
25 | 460 | CSc1sc(C(=N)N)cc1-c1nc(-c2cnn(C)c2)cs1
26 | 1000 | CSc1sc(C(=N)N)cc1-c1nc(-c2ccc([N+](=O)[O-])cc2)cs1
27 | 850 | CSc1sc(C(=N)N)cc1-c1nc(-c2ccccc2C)cs1
28 | > 20000 | CCSc1sc(C(=N)N)cc1-c1nc(-c2ccccc2)cs1
29 | 900 | COc1ccc(-c2csc(-c3cc(C(=N)N)sc3SC)n2)cc1
30 | 3000 | CSc1sc(C(=N)N)cc1-c1nc(-c2ccc(Cl)cc2Cl)cs1
31 | 15400 | CSc1sc(C(=N)N)cc1-c1nc(-c2ccc(-c3ccccc3)cc2)cs1
32 | 960 | CSc1sc(C(=N)N)cc1-c1nc(-c2cccc(C)c2)cs1
33 | 14400 | COc1sc(C(=N)N)cc1-c1nc(-c2ccccc2)cs1
34 | 1020 | CSc1sc(C(=N)N)cc1-c1nc(-c2cccnc2Cl)cs1
35 | 520 | CSc1sc(C(=N)N)cc1-c1nc(COc2ccccc2)cs1
36 | 420 | CSc1sc(C(=N)N)cc1-c1nc(-c2ccc(C)cc2)cs1
37 | 560 | CSc1sc(C(=N)N)cc1-c1nc(-c2ccccc2)cs1
38 | 450 | CSc1sc(C(=N)N)cc1-c1nc(-c2csc3ccccc23)cs1
39 | 700 | CSc1sc(C(=N)N)cc1-c1nc(-c2cccs2)cs1
40 | 150 | CSc1sc(C(=N)N)cc1-c1nc(-c2cnn(-c3ccccc3)c2)cs1

biological target: Serine protease 1 (Homo sapiens, UniProt P07477); experiment: In vitro binding affinity towards trypsin was determined
Sequence (P07477 whole entry): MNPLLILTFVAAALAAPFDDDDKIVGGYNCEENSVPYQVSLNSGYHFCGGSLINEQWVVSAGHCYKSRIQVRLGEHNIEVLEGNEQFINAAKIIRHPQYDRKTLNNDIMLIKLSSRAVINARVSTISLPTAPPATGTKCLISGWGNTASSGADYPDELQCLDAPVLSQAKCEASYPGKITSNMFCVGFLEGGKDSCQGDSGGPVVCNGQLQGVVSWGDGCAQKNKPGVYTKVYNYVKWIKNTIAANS

Row | Ki [nM] | Compound
41 | 180 | CCCc1c(-c2csc(-c3cc(C(=N)N)sc3SC)n2)cnn1-c1ccccn1

biological target: Coagulation factor X (Homo sapiens, UniProt P00742); experiment: In vitro binding affinity towards Coagulation factor X was determined
Sequence (P00742 41-179 limits assumed): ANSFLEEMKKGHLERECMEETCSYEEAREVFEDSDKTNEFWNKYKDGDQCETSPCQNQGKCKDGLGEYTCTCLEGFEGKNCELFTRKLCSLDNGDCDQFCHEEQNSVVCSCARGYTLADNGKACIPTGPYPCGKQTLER
Sequence (P00742 235-488 limits assumed): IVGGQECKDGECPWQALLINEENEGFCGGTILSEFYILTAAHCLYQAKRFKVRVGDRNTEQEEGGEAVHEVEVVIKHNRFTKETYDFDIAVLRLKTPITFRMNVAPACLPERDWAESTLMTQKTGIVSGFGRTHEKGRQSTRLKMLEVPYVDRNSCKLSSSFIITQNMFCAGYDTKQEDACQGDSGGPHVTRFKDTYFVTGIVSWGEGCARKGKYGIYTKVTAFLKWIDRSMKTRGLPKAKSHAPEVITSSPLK

Row | Ki [nM] | Compound
42 | 5000 | CCCc1c(-c2csc(-c3cc(C(=N)N)sc3SC)n2)cnn1-c1ccccn1

biological target: not listed separately; experiment: In vitro binding affinity towards human Complement C1r subcomponent

Row | Ki [nM] | Compound
43 | > 50000 | CCCc1c(-c2csc(-c3cc(C(=N)N)sc3SC)n2)cnn1-c1ccccn1

biological target: Plasminogen (Rattus norvegicus, UniProt Q01177); experiment: In vitro binding affinity towards plasmin was determined
Sequence (Q01177 97-581 limits assumed): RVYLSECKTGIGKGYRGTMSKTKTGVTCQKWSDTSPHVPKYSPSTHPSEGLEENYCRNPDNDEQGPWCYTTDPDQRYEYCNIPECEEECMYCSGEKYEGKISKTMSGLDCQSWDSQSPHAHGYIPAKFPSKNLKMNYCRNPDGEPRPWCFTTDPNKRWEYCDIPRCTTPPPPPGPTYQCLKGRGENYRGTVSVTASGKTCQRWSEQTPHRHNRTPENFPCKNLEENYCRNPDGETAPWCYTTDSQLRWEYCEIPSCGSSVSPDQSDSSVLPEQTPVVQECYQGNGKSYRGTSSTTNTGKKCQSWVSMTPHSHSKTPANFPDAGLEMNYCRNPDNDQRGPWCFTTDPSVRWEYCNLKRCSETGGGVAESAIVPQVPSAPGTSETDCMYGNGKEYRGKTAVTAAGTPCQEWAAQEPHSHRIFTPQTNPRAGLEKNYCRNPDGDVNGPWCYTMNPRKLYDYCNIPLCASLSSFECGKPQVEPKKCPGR
Sequence (Q01177 582-812 limits assumed): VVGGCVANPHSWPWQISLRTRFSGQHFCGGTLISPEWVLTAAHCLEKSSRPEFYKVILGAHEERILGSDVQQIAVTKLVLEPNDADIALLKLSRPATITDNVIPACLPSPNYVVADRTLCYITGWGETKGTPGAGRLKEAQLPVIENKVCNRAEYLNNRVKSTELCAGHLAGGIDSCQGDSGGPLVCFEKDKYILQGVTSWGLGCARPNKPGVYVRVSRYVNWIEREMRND

Row | Ki [nM] | Compound
44 | 5000 | CCCc1c(-c2csc(-c3cc(C(=N)N)sc3SC)n2)cnn1-c1ccccn1
